Measurements: ChEMBL document CHEMBL5291721, “A preclinical secondary pharmacology resource illuminates target-adverse drug reaction associations of marketed drugs” (Nat Commun, 2023)

Experiments:
[1] = molecular target: T1, Muscarinic acetylcholine receptor M1 (Homo sapiens, UniProt P11229); format: functional
T1 sequence (P11229 whole entry): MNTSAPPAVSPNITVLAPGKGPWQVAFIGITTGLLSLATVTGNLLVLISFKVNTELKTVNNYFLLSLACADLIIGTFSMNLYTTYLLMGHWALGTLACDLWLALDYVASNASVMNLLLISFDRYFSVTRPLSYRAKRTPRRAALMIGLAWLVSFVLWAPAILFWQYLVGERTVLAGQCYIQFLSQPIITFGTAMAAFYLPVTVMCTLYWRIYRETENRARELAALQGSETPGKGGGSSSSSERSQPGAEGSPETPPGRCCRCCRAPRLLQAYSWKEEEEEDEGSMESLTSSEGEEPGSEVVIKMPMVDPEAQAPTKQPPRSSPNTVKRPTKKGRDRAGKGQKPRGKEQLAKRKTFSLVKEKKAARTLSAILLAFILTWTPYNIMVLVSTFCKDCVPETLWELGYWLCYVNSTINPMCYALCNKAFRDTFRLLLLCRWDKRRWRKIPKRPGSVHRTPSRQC

[2] = molecular target: T2, Muscarinic acetylcholine receptor M2 (Homo sapiens, UniProt P08172); format: functional, cell-based
T2 sequence (P08172 whole entry): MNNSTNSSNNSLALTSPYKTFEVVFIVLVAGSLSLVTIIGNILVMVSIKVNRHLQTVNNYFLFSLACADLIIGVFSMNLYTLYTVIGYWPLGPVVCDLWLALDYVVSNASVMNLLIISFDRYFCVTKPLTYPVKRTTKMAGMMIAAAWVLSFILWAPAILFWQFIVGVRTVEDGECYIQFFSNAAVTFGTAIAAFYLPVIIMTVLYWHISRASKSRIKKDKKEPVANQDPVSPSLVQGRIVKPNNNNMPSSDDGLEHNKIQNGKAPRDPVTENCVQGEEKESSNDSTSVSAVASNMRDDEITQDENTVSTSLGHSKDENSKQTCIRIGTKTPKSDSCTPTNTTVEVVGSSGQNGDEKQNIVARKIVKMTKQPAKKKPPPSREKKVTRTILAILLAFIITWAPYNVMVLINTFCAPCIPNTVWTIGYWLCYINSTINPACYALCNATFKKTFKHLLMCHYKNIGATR

D(1A) dopamine receptor = D(1A) dopamine receptor (Homo sapiens, UniProt P21728); format: functional, cell-based
Chain of D(1A) dopamine receptor (P21728 whole entry): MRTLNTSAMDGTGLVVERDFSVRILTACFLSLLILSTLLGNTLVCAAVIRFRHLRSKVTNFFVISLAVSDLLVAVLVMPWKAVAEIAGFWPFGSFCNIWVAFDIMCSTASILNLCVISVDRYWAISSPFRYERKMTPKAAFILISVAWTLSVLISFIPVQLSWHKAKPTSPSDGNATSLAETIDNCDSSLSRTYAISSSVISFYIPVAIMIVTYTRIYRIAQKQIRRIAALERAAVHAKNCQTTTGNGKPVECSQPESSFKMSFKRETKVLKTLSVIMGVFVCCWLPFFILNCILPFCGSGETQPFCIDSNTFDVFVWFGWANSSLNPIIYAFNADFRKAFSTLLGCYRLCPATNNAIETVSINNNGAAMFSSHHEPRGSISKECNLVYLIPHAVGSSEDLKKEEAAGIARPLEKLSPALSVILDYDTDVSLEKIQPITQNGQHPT

[3] = molecular target: T3, 5-hydroxytryptamine receptor 2C (Homo sapiens, UniProt P28335)
T3 sequence (P28335 whole entry): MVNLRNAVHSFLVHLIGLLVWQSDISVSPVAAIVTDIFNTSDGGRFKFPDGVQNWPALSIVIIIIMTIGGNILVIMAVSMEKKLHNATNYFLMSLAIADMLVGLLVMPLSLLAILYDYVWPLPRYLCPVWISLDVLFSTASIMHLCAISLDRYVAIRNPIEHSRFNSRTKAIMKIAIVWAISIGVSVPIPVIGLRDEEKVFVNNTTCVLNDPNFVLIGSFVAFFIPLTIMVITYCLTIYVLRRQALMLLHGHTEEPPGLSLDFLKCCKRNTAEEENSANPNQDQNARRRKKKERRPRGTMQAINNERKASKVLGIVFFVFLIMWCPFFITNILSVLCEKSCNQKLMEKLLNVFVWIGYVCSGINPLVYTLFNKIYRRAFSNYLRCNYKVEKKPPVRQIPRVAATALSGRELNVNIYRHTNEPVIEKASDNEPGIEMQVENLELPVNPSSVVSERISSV

[4] = molecular target: Voltage-gated inwardly rectifying potassium channel KCNH2 (Homo sapiens, UniProt Q12809); format: functional; conditions: read-out: AC50
Chain of Voltage-gated inwardly rectifying potassium channel KCNH2 (Q12809 whole entry): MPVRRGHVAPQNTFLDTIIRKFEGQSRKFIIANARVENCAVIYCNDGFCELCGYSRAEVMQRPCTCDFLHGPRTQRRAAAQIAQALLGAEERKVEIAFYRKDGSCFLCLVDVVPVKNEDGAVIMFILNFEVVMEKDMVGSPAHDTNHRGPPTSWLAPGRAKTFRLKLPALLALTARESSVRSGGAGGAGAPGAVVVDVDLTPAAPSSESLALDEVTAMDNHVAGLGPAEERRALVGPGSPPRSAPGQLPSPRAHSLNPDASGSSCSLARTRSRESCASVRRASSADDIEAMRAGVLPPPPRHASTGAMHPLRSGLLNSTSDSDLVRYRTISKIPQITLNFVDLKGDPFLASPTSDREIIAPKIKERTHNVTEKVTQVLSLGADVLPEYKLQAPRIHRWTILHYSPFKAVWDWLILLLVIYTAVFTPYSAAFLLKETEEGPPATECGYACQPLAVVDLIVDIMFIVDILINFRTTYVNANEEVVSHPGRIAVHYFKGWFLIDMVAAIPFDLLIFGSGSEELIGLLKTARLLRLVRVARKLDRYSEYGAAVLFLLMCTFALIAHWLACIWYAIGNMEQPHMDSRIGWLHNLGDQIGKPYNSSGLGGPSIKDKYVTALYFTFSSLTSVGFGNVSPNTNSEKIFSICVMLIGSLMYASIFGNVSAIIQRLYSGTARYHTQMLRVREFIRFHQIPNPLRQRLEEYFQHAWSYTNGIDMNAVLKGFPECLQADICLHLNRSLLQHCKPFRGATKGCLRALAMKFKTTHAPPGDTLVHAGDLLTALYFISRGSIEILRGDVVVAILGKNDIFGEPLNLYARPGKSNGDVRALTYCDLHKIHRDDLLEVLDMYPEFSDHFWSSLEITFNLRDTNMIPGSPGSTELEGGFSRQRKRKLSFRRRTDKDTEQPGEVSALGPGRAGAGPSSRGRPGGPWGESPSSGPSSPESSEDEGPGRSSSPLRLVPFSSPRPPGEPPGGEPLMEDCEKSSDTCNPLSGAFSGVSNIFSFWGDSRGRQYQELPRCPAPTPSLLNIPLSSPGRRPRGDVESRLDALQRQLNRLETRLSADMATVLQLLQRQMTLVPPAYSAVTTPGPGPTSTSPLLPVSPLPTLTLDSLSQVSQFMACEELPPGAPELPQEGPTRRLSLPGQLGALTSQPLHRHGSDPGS

[5] = molecular target: Delta-type opioid receptor (Homo sapiens, UniProt P41143)
Chain of Delta-type opioid receptor (P41143 whole entry): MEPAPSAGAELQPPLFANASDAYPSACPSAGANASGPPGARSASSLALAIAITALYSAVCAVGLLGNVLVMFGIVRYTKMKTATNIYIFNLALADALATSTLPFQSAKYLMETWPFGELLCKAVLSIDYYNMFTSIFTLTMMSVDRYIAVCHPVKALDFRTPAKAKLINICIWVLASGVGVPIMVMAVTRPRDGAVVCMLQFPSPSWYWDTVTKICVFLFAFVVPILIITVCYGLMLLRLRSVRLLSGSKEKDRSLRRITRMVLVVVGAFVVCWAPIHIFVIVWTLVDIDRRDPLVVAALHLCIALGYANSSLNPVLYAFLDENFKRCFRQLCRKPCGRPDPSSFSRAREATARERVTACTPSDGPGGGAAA

Mu-type opioid receptor = Mu-type opioid receptor (Homo sapiens, UniProt P35372); test: biochemical; format: functional
Chain of Mu-type opioid receptor (P35372 whole entry): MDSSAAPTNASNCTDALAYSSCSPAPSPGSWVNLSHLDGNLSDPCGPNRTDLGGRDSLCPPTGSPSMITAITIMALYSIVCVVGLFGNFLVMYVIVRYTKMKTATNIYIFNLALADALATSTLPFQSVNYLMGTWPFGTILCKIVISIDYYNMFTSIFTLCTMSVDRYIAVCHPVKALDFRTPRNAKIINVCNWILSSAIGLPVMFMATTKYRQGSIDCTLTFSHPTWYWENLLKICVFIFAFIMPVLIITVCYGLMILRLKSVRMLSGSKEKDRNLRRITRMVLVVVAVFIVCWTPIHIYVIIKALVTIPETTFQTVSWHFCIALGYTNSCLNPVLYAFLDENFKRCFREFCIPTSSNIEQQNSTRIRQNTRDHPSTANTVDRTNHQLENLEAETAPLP

[6] = molecular target: T4, Prostaglandin G/H synthase 1 (Rattus norvegicus, UniProt Q63921); format: functional
T4 sequence (Q63921 whole entry): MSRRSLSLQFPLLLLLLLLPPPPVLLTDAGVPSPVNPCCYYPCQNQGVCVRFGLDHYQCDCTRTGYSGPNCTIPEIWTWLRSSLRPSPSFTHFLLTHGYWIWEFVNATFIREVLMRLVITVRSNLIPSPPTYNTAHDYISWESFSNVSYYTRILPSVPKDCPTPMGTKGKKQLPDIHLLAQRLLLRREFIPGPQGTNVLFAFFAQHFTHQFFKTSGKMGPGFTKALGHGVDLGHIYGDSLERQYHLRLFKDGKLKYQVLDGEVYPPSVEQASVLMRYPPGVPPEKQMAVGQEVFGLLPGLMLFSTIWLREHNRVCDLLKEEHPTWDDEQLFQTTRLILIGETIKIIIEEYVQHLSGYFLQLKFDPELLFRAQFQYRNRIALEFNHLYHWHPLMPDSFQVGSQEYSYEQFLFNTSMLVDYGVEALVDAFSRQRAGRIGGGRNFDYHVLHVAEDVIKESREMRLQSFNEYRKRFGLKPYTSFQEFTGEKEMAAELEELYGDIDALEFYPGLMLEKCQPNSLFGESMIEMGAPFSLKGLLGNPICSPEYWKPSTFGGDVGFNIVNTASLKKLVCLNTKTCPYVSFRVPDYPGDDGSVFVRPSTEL

[7] = molecular target: T5, Amine oxidase [flavin-containing] A (Homo sapiens, UniProt P21397); format: functional
T5 sequence (P21397 whole entry): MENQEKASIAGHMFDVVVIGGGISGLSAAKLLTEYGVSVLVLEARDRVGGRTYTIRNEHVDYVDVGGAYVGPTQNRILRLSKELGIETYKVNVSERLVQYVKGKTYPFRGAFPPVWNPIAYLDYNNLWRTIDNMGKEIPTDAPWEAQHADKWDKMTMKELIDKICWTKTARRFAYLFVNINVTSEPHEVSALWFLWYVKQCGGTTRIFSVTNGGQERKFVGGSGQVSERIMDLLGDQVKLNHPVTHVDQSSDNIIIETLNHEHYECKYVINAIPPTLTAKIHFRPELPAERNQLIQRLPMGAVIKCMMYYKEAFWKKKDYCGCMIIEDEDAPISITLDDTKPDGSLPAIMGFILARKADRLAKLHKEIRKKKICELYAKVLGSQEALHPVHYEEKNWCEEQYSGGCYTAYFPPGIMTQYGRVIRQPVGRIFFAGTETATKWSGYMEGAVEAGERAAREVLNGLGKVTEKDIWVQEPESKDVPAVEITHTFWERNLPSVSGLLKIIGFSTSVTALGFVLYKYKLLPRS

[8] = molecular target: cGMP-inhibited 3',5'-cyclic phosphodiesterase 3A (Homo sapiens, UniProt Q14432); format: functional
Chain of cGMP-inhibited 3',5'-cyclic phosphodiesterase 3A (Q14432 whole entry): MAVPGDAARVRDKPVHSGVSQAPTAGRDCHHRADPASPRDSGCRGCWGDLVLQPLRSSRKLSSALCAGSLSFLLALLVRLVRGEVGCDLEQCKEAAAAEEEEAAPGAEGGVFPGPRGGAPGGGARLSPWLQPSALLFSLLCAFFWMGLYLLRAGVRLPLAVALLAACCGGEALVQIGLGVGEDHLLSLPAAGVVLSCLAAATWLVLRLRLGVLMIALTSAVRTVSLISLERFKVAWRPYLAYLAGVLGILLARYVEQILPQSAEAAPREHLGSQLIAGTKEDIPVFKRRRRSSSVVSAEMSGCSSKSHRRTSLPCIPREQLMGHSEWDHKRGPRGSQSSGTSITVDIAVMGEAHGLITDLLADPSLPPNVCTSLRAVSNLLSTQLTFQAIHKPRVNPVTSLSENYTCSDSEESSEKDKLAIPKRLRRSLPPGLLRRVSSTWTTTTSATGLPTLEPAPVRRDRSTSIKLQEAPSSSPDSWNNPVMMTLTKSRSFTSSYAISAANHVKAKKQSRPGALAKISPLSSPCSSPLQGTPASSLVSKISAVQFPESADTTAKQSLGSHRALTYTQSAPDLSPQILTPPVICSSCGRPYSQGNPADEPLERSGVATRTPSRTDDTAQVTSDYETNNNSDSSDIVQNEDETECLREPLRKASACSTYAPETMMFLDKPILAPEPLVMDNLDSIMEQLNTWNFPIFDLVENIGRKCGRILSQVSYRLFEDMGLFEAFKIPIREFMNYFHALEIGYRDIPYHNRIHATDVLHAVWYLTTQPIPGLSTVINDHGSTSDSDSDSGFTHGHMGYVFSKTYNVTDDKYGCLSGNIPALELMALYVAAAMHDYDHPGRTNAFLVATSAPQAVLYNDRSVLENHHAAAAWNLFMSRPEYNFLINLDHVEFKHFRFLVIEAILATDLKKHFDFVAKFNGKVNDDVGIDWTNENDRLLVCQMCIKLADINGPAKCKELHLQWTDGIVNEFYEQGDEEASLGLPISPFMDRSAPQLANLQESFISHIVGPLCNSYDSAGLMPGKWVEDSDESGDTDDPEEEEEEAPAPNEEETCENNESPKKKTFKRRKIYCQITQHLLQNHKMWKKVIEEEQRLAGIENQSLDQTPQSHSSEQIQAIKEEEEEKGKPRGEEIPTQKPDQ
Further: assay procedure not described here.

| Structure (SMILES) | AC50 [1] [µM] | AC50 [2] [µM] | AC50 (D(1A) dopamine receptor) [µM] | AC50 [3] [µM] | AC50 [4] [µM] | AC50 [5] [µM] | AC50 (Mu-type opioid receptor) [µM] | AC50 [6] [µM] | AC50 [7] [µM] | AC50 [8] [µM] |
| --- | --- | --- | --- | --- | --- | --- | --- | --- | --- | --- |
| CCCCC[C@H](O)/C=C/[C@H]1[C@H](O)CC(=O)[C@@H]1C/C=C\CCCC(=O)O [DINOPROSTONE] | > 30 | > 30 | > 30 | > 30 | > 30 | > 30 | > 30 | 15 | > 30 | > 30 |
| CC(C)c1cc2c(cc1S(=O)(=O)O)[C@@]1(C)CCC[C@@](C)(C(=O)O)[C@@H]1CC2 [ECABET] | > 30 | > 30 | > 30 | > 30 | > 30 | > 30 | > 30 | > 30 | > 30 | > 30 |
| COC(=O)N[C@@H](C)CNc1nccc(-c2cn(C(C)C)nc2-c2cc(Cl)cc(NS(C)(=O)=O)c2F)n1 [ENCORAFENIB] | > 30 | > 30 | > 30 | > 30 | > 30 | > 30 | > 30 | > 30 | > 30 | 25 |
| CCCN(CC)C(CC)C(=O)Nc1c(C)cccc1C (stereo not given) [ETIDOCAINE] | > 30 | > 30 | > 30 | > 30 | > 30 | > 30 | > 30 | > 30 | > 30 | > 30 |
| Clc1ccc(C(Cn2ccnc2)OCc2ccc(Sc3ccccc3)cc2)c(Cl)c1 (stereo not given) [FENTICONAZOLE] | > 30 | > 30 | > 30 | > 30 | 1.45 | > 30 | > 30 | 30 | > 30 | > 30 |
| Nc1nc(F)nc2c1ncn2[C@@H]1O[C@H](COP(=O)(O)O)[C@@H](O)[C@@H]1O [FLUDARABINE PHOSPHATE] | > 30 | > 30 | > 30 | > 30 | > 30 | > 30 | > 30 | > 30 | > 30 | > 30 |
| O=C(O)c1ccccc1Nc1cccc(C(F)(F)F)c1 [FLUFENAMIC ACID] | 0.54 | > 10 | > 10 | 4.6 | > 30 | > 30 | > 30 | 18.3 | > 10 | > 30 |
| O=C(O)c1ccccc1OP(=O)(O)O [FOSFOSAL] | > 30 | > 30 | > 30 | > 30 | > 30 | > 30 | > 30 | > 30 | > 30 | 9.8 |
| C#C[C@]1(O)CC[C@H]2[C@@H]3CCC4=CC(=O)CCC4=C3C=C[C@@]21CC [GESTRINONE] | > 30 | > 30 | > 30 | > 30 | > 30 | > 30 | > 30 | > 30 | > 30 | 2.9 |
| CCCCCCOC(=O)CCC(=O)CN [HEXAMINOLEVULINATE] | > 30 | > 30 | > 30 | 24 | > 30 | > 30 | > 30 | 9.4 | > 30 | > 30 |
| CCCC[C@H](C)C[C@H](O)/C=C/[C@H]1[C@H](O)CC(=O)[C@@H]1CCCC/C=C/C(=O)O [LIMAPROST] | > 30 | > 30 | > 30 | > 30 | > 30 | > 30 | > 30 | > 30 | > 30 | > 30 |
| Cc1ccc(NC(=O)C2(c3ccc4c(c3)OC(F)(F)O4)CC2)nc1-c1cccc(C(=O)O)c1 [LUMACAFTOR] | > 30 | > 30 | > 30 | > 30 | > 30 | > 30 | > 30 | > 30 | > 30 | > 30 |
| CC(C)OC(=O)C(C(=O)OC(C)C)=C1SC=CS1 [MALOTILATE] | > 30 | > 30 | > 30 | > 30 | > 30 | > 30 | > 30 | > 30 | > 30 | > 30 |
| CN(c1nccc(=O)[nH]1)C1CCN(c2nc3ccccc3n2Cc2ccc(F)cc2)CC1 [MIZOLASTINE] | 0.011 | > 30 | > 30 | > 10 | 3.34 | > 30 | > 30 | > 30 | > 30 | 6.1 |
| CC(=O)O[C@H]1C[C@@H]2CC[C@@H]3[C@H](CC[C@@]4(C)[C@H]3C[C@H]([N+]3(C)CCCCC3)[C@@H]4OC(C)=O)[C@@]2(C)C[C@@H]1[N+]1(C)CCCCC1 [PANCURONIUM] | > 10 | > 10 | > 10 | > 30 | 1.26 | > 30 | > 30 | > 10 | > 10 | > 30 |
| CC[N+]1(C)CCCC(OC(=O)C(O)(c2ccccc2)c2ccccc2)C1 (stereo not given) [PIPENZOLATE] | 0.023 | > 30 | > 30 | > 30 | 0.97 | > 30 | > 30 | > 30 | > 30 | > 30 |
